Structures can show the parent of a compound that is named as a salt. Where two headings read alike, the source gives them in different places.
Key:
[1] = target: T1, MNK1 (Homo sapiens, UniProt Q9BUB5); assay: MNK1 protein kinase assay; type: biochemical; conditions: for remaining activity at 10 µM: 10 μM compound; for residual kinase activity MNK1: 1 μm compound; for remaining activity at 1 µM: 1 μM compound
T1 construct: All protein kinases were of human origin and encoded full length proteins, unless indicated otherwise; made in house
T1 sequence (Q9BUB5 whole entry): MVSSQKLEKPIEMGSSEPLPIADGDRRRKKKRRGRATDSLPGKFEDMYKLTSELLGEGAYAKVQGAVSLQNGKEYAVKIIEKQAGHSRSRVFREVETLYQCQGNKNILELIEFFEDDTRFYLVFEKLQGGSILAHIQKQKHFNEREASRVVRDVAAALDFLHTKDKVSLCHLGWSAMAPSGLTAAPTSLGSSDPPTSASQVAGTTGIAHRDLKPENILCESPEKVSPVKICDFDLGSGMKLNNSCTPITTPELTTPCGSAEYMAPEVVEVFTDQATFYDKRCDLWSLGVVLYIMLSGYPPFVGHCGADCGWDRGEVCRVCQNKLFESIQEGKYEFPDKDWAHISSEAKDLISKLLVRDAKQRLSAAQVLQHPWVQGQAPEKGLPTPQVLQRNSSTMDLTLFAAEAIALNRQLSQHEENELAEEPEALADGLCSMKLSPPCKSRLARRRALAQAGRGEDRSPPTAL
Text: (§1) All protein kinases were of human origin and encoded full length proteins, unless indicated otherwise. They were either expressed as glutathione S-transferase (GST) fusion proteins in Escherichia Coli or as hexahistidine (His6)-tagged proteins in insect Sf21 cells. GST fusion proteins were purified by affinity chromatography on glutathione-Sepharose, and His6-tagged proteins on nickel/nitriloacetate-agarose. The procedures for expressing some of the protein kinases used herein have been detailed previously.^8,9 The following sections outline the DNA vectors synthesised and the procedures used to express and purifying protein kinases that have not been reported previously.
(§2) All assays (25.5 μl) were carried out at room temperature (21° C.) and were linear with respect to time and enzyme concentration under the conditions used. Assays were performed for 30 min using Multidrop Micro reagent dispensers (Thermo Electron Corporation, Waltham, Mass. 02454, USA) in a 96-well format. The concentration of magnesium acetate in the assays was 10 mM and the [γ-33P] ATP (800 cpm/pmol) was used at 5, 20 or 50 μM as indicated, in order to be at or below the Km for ATP for each enzyme. Protein kinases assayed at 5 μM ATP were: —ERK1, ERK8, PKBα, MARK3, Aurora C. Protein kinases assayed at 20 μM ATP were: —JNK1, PDK1, CHK1, CHK2, CDK2 and Aurora B. Protein kinases assayed at 50 μM ATP were: —MNK2, IKKepsilon and TBK1.
(§3) The assays were initiated with MgATP, stopped by addition of 5 μl of 0.5 M orthophosphoric acid and spotted on to P81 filterplates using a unifilter harvester (PerkinElmer, Boston, Mass. 02118, USA). The IC50 values of inhibitors were determined after carrying out assays at 10 different concentrations of each compound.
(§4) Unless stated otherwise, enzymes were diluted in 50 mM Tris/HCl pH 7.5, 0.1 mM EGTA, 1 mg/ml BSA, 0.1% (v/v) 2-mercaptoethanol and assayed in 50 mM Tris/HCl pH 7.5, 0.1 mM EGTA, 0.1% (v/v) 2-mercaptoethanol.

[2] = target: T2, PAK4 (Homo sapiens, UniProt O96013); assay: PAK4 protein kinase assay; type: biochemical; conditions: for remaining activity at 10 µM: 10 μM compound; for residual kinase activity PAK4: 1 μm compound; for remaining activity at 1 µM: 1 μM compound
T2 construct: All protein kinases were of human origin and encoded full length proteins, unless indicated otherwise; made in house
T2 sequence (O96013 whole entry): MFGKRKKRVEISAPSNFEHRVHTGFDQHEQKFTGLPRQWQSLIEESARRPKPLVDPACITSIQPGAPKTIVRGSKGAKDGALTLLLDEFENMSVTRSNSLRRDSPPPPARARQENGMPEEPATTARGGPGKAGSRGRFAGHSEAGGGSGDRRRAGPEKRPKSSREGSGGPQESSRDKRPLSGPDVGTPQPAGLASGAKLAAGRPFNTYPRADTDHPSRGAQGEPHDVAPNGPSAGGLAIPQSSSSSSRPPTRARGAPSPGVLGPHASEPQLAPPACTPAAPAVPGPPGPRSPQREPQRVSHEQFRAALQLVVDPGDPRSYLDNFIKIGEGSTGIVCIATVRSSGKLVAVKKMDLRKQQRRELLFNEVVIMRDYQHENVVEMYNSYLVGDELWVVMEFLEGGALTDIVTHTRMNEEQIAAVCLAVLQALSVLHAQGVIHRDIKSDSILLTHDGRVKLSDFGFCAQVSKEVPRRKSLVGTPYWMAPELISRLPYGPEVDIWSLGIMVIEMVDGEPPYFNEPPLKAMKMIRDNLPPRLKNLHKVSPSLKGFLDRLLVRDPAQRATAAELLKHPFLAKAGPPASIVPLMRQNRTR
Text: as §1, §2, §3, §4

[3] = target: T3, PAK6 (Homo sapiens, UniProt Q9NQU5); assay: PAK6 protein kinase assay; type: biochemical; conditions: for remaining activity at 10 µM: 10 μM compound; for residual kinase activity PAK6: 1 μm compound; for remaining activity at 1 µM: 1 μM compound
T3 construct: All protein kinases were of human origin and encoded full length proteins, unless indicated otherwise; made in house
T3 sequence (Q9NQU5 whole entry): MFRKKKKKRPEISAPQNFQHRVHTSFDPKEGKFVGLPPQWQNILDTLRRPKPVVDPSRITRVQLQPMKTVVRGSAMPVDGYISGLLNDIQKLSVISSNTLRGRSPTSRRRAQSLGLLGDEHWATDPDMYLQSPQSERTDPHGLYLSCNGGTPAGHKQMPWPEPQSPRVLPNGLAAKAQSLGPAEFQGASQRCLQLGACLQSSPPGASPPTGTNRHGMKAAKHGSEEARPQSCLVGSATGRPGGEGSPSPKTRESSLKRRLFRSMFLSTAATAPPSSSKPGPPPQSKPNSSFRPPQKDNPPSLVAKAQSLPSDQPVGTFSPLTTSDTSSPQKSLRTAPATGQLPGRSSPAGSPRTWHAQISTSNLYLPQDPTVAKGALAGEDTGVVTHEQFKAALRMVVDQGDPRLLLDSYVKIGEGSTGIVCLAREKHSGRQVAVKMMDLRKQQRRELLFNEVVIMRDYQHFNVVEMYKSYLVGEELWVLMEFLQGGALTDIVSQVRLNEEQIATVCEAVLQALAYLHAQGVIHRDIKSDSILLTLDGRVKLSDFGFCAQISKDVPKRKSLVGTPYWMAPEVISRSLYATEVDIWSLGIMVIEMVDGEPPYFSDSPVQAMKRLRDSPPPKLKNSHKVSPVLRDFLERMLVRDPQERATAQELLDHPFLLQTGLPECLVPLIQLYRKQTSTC
Text: as §1, §2, §3, §4

[4] = target: T4, IKKb (Homo sapiens, UniProt O14920); assay: IKKb protein kinase assay; type: biochemical; conditions: for remaining activity at 10 µM: 10 μM compound; for residual kinase activity IKKb: 1 μm compound; for remaining activity at 1 µM: 1 μM compound
T4 construct: All protein kinases were of human origin and encoded full length proteins, unless indicated otherwise; made in house
T4 sequence (O14920 1-756): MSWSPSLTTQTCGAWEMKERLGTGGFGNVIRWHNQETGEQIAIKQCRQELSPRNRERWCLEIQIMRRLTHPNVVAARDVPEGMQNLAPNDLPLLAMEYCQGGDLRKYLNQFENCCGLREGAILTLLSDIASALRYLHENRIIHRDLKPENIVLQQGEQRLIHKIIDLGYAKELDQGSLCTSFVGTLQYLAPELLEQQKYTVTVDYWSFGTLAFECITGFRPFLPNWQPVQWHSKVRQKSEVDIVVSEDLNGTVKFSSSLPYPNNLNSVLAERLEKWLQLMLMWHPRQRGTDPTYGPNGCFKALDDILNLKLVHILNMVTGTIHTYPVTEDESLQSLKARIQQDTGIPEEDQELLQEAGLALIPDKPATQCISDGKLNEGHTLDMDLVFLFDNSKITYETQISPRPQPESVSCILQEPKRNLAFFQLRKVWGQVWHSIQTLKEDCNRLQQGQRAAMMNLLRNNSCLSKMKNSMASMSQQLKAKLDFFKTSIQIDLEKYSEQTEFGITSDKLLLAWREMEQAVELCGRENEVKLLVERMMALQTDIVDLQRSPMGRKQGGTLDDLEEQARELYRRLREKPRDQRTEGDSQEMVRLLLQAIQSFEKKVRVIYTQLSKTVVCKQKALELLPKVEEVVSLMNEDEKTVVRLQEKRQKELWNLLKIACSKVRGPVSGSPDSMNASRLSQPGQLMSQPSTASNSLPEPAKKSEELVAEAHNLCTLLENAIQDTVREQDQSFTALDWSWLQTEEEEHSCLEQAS
Text: as §1, §2, §3, §4

[5] = target: T5, p38g MAPK (Homo sapiens, UniProt P53778); assay: p38g MAPK protein kinase assay; type: biochemical; conditions: for remaining activity at 10 µM: 10 μM compound; for residual kinase activity p38g MAPK: 1 μm compound; for remaining activity at 1 µM: 1 μM compound
T5 construct: All protein kinases were of human origin and encoded full length proteins, unless indicated otherwise; made in house
T5 sequence (P53778 1-367): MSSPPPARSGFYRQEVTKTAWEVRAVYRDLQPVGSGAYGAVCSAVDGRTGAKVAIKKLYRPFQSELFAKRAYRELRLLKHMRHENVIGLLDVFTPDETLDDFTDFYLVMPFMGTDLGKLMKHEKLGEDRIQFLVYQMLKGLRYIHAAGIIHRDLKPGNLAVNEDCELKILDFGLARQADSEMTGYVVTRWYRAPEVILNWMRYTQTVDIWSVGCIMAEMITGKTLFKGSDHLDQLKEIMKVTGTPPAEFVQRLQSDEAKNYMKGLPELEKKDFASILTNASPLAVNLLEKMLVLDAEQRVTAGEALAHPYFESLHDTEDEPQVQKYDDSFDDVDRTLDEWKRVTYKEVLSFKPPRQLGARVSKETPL
Text: as §1, §2, §3, §4

[6] = target: T6, MKK1 (Homo sapiens, UniProt Q02750); assay: MKK1 protein kinase assay; type: biochemical; conditions: for remaining activity at 10 µM: 10 μM compound; for residual kinase activity MKK1: 1 μm compound; for remaining activity at 1 µM: 1 μM compound
T6 construct: All protein kinases were of human origin and encoded full length proteins, unless indicated otherwise; made in house
T6 sequence (Q02750 whole entry): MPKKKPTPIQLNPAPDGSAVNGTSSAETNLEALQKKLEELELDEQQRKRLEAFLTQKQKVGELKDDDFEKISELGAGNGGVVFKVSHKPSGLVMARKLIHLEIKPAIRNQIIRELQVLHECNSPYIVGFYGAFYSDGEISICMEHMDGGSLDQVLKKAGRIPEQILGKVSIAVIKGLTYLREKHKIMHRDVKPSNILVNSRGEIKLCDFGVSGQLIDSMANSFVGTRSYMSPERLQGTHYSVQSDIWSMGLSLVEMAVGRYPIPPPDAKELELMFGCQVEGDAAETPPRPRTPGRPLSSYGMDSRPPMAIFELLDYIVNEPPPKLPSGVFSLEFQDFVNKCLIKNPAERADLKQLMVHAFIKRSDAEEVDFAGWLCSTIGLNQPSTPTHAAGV
Text: as §1, §2, §3, §4

[7] = target: T7, CAMK1 (Homo sapiens, UniProt Q14012); assay: CAMK1 protein kinase assay; type: biochemical; conditions: for remaining activity at 10 µM: 10 μM compound; for residual kinase activity CAMK1: 1 μm compound; for remaining activity at 1 µM: 1 μM compound
T7 construct: All protein kinases were of human origin and encoded full length proteins, unless indicated otherwise; made in house
T7 sequence (Q14012 whole entry): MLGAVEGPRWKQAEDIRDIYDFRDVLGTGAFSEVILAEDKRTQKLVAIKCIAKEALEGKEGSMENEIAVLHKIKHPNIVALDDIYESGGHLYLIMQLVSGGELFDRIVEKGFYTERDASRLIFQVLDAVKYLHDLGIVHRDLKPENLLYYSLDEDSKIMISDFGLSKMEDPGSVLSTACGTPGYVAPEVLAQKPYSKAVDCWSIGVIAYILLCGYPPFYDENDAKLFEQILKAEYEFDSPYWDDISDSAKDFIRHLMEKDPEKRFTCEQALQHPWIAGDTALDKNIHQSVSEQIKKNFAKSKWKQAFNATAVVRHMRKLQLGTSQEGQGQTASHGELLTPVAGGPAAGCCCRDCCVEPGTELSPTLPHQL
Text: as §1, §2, §3, §4

[8] = test system: AMPK; assay: AMPK protein kinase assay; type: biochemical, human; conditions: for residual kinase activity: AMPK
Text: as §1, §2, §3, §4

[9] = target: T8, EF2K (Homo sapiens, UniProt O00418); assay: EF2K protein kinase assay; type: biochemical; conditions: for remaining activity at 10 µM: 10 μM compound; for residual kinase activity EF2K: 1 μm compound; for remaining activity at 1 µM: 1 μM compound
T8 construct: All protein kinases were of human origin and encoded full length proteins, unless indicated otherwise; made in house
Text: as §1, §2, §3, §4

[10] = read-out: residual kinase activity MNK1
[11] = read-out: residual kinase activity PAK4
[12] = read-out: residual kinase activity PAK6
[13] = read-out: residual kinase activity IKKb
[14] = read-out: residual kinase activity p38g MAPK
[15] = read-out: residual kinase activity MKK1
[16] = read-out: residual kinase activity CAMK1
[17] = read-out: residual kinase activity EF2K
[18] = MNK1, read-out: residual kinase activity
[19] = PAK4, read-out: residual kinase activity
[20] = PAK6, read-out: residual kinase activity
[21] = IKKb, read-out: residual kinase activity
[22] = p38g MAPK, read-out: residual kinase activity
[23] = MKK1, read-out: residual kinase activity
[24] = CAMK1, read-out: residual kinase activity
[25] = EF2K, read-out: residual kinase activity

For `O=C(NCCCNc1nc(Nc2cccc(F)c2)ncc1Br)C1CCC1` [Compound A, cyclobutanecarboxylic acid {3-[5-bromo-2-(3-fluoro-phenylamino)-pyrimidin-4-ylamino]-propyl}-amide, reference compound], the remaining activity at 10 µM [1, 10] was 15%, the “residual kinase activity MNK1” value [1] was 49% and the remaining activity at 10 µM [2, 11] was 6%. For the same compound, the “residual kinase activity PAK4” value [2] was 32%, the remaining activity at 10 µM [3, 12] was 14% and the “residual kinase activity PAK6” value [3] was 45%. For the same compound, the remaining activity at 10 µM [4, 13] was 66%, the “residual kinase activity IKKb” value [4] was 93% and the remaining activity at 10 µM [5, 14] was 17%. For the same compound, the “residual kinase activity p38g MAPK” value [5] was 65%, the remaining activity at 10 µM [6, 15] was 2% and the “residual kinase activity MKK1” value [6] was 15%. For the same compound, the remaining activity at 10 µM [7, 16] was 25%, the “residual kinase activity CAMK1” value [7] was 54% and the “residual kinase activity AMPK” value ([8]; 10 μM compound) was 2%. For the same compound, the “residual kinase activity AMPK” value ([8]; 1 μm compound) was 4%, the remaining activity at 10 µM [9, 17] was 88% and the “residual kinase activity EF2K” value [9] was 96%.
With `O=C(NCCCNc1nc(Nc2cccc(F)c2)ncc1C1CC1)C1CCC1` [Example 23, Cyclobutanecarboxylic acid {3-[5-cyclopropyl-2-(3-fluoro-phenylamino)-pyrimidin-4-ylamino]-propyl}-amide] the remaining activity at 10 µM [1, 10] was 62%, the “residual kinase activity MNK1” value [1] was 85% and the remaining activity at 1 µM [1, 18] was 85%. The remaining activity at 10 µM [1, 18] was 62%, the remaining activity at 10 µM [2, 11] was 31% and the “residual kinase activity PAK4” value [2] was 72%. For the same compound, the remaining activity at 1 µM [2, 19] was 72%, the remaining activity at 10 µM [2, 19] was 31% and the remaining activity at 10 µM [3, 12] was 50%. The “residual kinase activity PAK6” value [3] was 82%, the remaining activity at 1 µM [3, 20] was 82% and the remaining activity at 10 µM [3, 20] was 50%. The remaining activity at 10 µM [4, 13] was 80%, the “residual kinase activity IKKb” value [4] was 75% and the remaining activity at 1 µM [4, 21] was 75%. The remaining activity at 10 µM [4, 21] was 80%, the remaining activity at 10 µM [5, 14] was 91% and the “residual kinase activity p38g MAPK” value [5] was 81%. For the same compound, the remaining activity at 1 µM [5, 22] was 81%, the remaining activity at 10 µM [5, 22] was 91% and the remaining activity at 10 µM [6, 15] was 25%. The “residual kinase activity MKK1” value [6] was 52%, the remaining activity at 1 µM [6, 23] was 52% and the remaining activity at 10 µM [6, 23] was 25%. The remaining activity at 10 µM [7, 16] was 66%, the “residual kinase activity CAMK1” value [7] was 77% and the remaining activity at 1 µM [7, 24] was 77%. The remaining activity at 10 µM [7, 24] was 66%, the “residual kinase activity AMPK” value ([8]; 10 μM compound) was 8% and the “residual kinase activity AMPK” value ([8]; 1 μm compound) was 45%. The residual kinase activity ([8]; 1 μM compound) was 45%, the residual kinase activity ([8]; 10 μM compound) was 8% and the remaining activity at 10 µM [9, 17] was 125%. For the same compound, the “residual kinase activity EF2K” value [9] was 105%, the remaining activity at 1 µM [9, 25] was 105% and the remaining activity at 10 µM [9, 25] was 125%.
`O=C(NCCCNc1nc(Nc2cccc(N3CCCC3=O)c2)ncc1C1CC1)c1cccs1` [Example 47, Thiophene-2-carboxylic acid (3-{5-cyclopropyl-2-[3-(2-oxo-pyrrolidin-1-yl)-phenylamino]-pyrimidin-4-ylamino}-propyl)-amide. Hydrochloride salt] gave a remaining activity at 1 µM [1, 18] of 93%, a remaining activity at 10 µM [1, 18] of 73% and a remaining activity at 1 µM [2, 19] of 80%. The remaining activity at 10 µM [2, 19] was 57%, the remaining activity at 1 µM [3, 20] was 77% and the remaining activity at 10 µM [3, 20] was 85%. The remaining activity at 1 µM [4, 21] was 91%, the remaining activity at 10 µM [4, 21] was 86% and the remaining activity at 1 µM [5, 22] was 97%. For the same compound, the remaining activity at 10 µM [5, 22] was 77%, the remaining activity at 1 µM [6, 23] was 33% and the remaining activity at 10 µM [6, 23] was 17%. It also gave a remaining activity at 1 µM [7, 24] of 91%, a remaining activity at 10 µM [7, 24] of 73% and a residual kinase activity ([8]; 1 μM compound) of 77%. For the same compound, the residual kinase activity ([8]; 10 μM compound) was 30%, the remaining activity at 1 µM [9, 25] was 105% and the remaining activity at 10 µM [9, 25] was 104%.
`O=C(NCCCNc1nc(Nc2cccnc2)ncc1C1CC1)c1cccs1` [Example 50, Thiophene-2-carboxylic acid {3-[5-cyclopropyl-2-(pyridin-3-ylamino)-pyrimidin-4-ylamino]-propyl}-amide] gave a remaining activity at 1 µM [1, 18] of 94%, a remaining activity at 10 µM [1, 18] of 81% and a remaining activity at 1 µM [2, 19] of 75%. The remaining activity at 10 µM [2, 19] was 35%, the remaining activity at 1 µM [3, 20] was 78% and the remaining activity at 10 µM [3, 20] was 50%. For the same compound, the remaining activity at 1 µM [4, 21] was 90%, the remaining activity at 10 µM [4, 21] was 88% and the remaining activity at 1 µM [5, 22] was 93%. The remaining activity at 10 µM [5, 22] was 80%, the remaining activity at 1 µM [6, 23] was 44% and the remaining activity at 10 µM [6, 23] was 24%. It also gave a remaining activity at 1 µM [7, 24] of 94%, a remaining activity at 10 µM [7, 24] of 71% and a residual kinase activity ([8]; 1 μM compound) of 76%. It also gave a residual kinase activity ([8]; 10 μM compound) of 38%, a remaining activity at 1 µM [9, 25] of 108% and a remaining activity at 10 µM [9, 25] of 101%.
